Experiment: Degradation of compound and release of acrolein, tracked via NMR spectroscopy
Assay type: physicochemical
Details: 50 mM in deuterated water; for % acrolein generated pH 3, 3 days / % degraded pH 3, 3 days: pH 3 (adjusted with deuterium chloride); for % acrolein generated pH 3, 3 days / % degraded pH 3, 3 days / % acrolein generated pH 7, 7 days / % degraded pH 7, 7 days: 25 degrees Celsius
Description: Degradation of Compound and Release of Acrolein
n=3, X as defined in the table. Measured at 25 degrees Celsius (room temperature), tracked via NMR spectroscopy. All compounds were prepared at 50 mM in deuterated water, pH adjusted with deuterium chloride.
n=3, X is Br. Measured at 25 or 70 degrees Celsius, tracked via NMR spectroscopy. All compounds were prepared at 50 mM in deuterated water at pH 7. Measurements were made after 4 hours.

SMILES	% acrolein generated pH 3, 3 days [%]	% degraded pH 3, 3 days [%]	% acrolein generated pH 7, 7 days [%]	% degraded pH 7, 7 days [%]	% acrolein generated 25° C. (25° C., pH 7, after 4 hours) [%]	% degraded 25° C. (25° C., pH 7, after 4 hours) [%]	% acrolein generated 70° C. (70° C., pH 7, after 4 hours) [%]	% degraded 70° C. (70° C., pH 7, after 4 hours) [%]
COCCOCCOCCOC(CCCl)OCCOCCOCCOC [Compound 1]	1	50	0	0	–	–	–	–
COCCOCCOCCOC(CCBr)OCCOCCOCCOC [Compound 3]	8	100	12	95	0	0	40	85

From patent US20190062260A1, “ANTIMICROBIAL COMPOSITIONS, METHODS OF MAKING, AND METHODS OF USE” (priority 2017, published 2019)
